From ChEMBL document CHEMBL1201862, “PubChem BioAssay data set” (2004)
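Growth conditions: 96-well plates. Treatment: test compound, 48 hours, 5 concentrations. Analysis: linear interpolation between bracketing concentrations; unreached endpoints set to highest concentration. Here, GI50 denotes the concentration required for 50% inhibition of growth.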 The source made the active and inactive calls. Rule as the data show it: active = GI50 up to about 1.1 µM and inactive = higher.

Legend:
Assay in all cases: inhibition of tumour cell growth, NCI panel, 48 h
[1] = tested on: NCI-H226
[2] = tested on: OVCAR-8
[3] = tested on: EKVX
[4] = tested on: SNB-75
[5] = tested on: M14
[6] = tested on: A549
[7] = tested on: LXFL 529
[8] = tested on: SF-268
[9] = tested on: SNB-19
[10] = tested on: Malme-3M
[11] = tested on: SN12C
[12] = tested on: TK-10
[13] = tested on: OVCAR-4
[14] = tested on: NCI-H460
[15] = tested on: HCT-116
[16] = tested on: HOP-92
[17] = tested on: T47D
[18] = tested on: MDA-N
[19] = tested on: MCF7
[20] = tested on: BT-549

Measured: GI50

O=C(O)c1ccc([C@@H]2C(=O)N(O)[C@@H]3C=CC[C@@H]32)cc1
inactive: [1] > 100 µM | [2] > 100 µM | [3] > 100 µM | [4] > 100 µM | [5] > 100 µM | [6] > 100 µM | [7] > 100 µM | [8] > 100 µM | [9] > 100 µM | [10] > 100 µM | [11] > 100 µM | [12] > 100 µM

COC1CC(OC)C(O)C(CO)O1 (centres undefined)
inactive: [13] > 100 µM | [2] > 100 µM | [3] > 100 µM | [4] > 100 µM | [14] > 100 µM | [5] > 100 µM | [6] > 100 µM | [15] > 100 µM | [7] > 100 µM | [10] > 100 µM | [11] > 100 µM | [12] > 100 µM

CC(=O)CC(OC(C)=O)C1=CCC2C(CC1C)OC(=O)C2C (centres undefined)
inactive: [1] > 100 µM | [13] > 100 µM | [2] > 100 µM | [16] > 100 µM | [3] > 100 µM | [17] > 100 µM | [4] > 100 µM | [14] > 100 µM | [5] > 100 µM | [6] > 100 µM | [15] > 100 µM | [18] > 100 µM | [8] > 100 µM | [9] > 100 µM | [10] > 100 µM | [11] > 100 µM | [12] > 100 µM | [19] > 100 µM | [20] 75 µM

COC(=O)C1=CCC2c3[nH]c4ccccc4c3CCN2C1 (centres undefined)
inactive: [1] 203 µM | [2] > 354 µM | [16] > 354 µM | [3] 343 µM | [14] > 354 µM | [6] > 354 µM | [15] 242 µM | [7] > 354 µM | [8] > 354 µM | [9] 193 µM | [10] > 354 µM | [11] > 354 µM | [12] > 354 µM

COC(=O)c1ccccc1/C=C1\Cc2c(C)c3c(c(C)c2C1=O)CCC3
inactive: [1] > 100 µM | [13] 30.1 µM | [2] > 100 µM | [16] > 100 µM | [3] > 100 µM | [17] > 100 µM | [4] 63.7 µM | [14] > 100 µM | [5] > 100 µM | [6] > 100 µM | [15] > 100 µM | [18] > 100 µM | [8] 64.1 µM | [9] > 100 µM | [10] > 100 µM | [11] > 100 µM | [12] > 100 µM | [19] > 100 µM | [20] > 100 µM

NC1=Nc2ccccc2Sc2cccc(F)c21
inactive: [1] 66.5 µM | [13] 58.3 µM | [2] > 100 µM | [16] > 100 µM | [3] 50.9 µM | [17] 62.2 µM | [4] 46.5 µM | [14] > 100 µM | [5] 50.9 µM | [6] 57.5 µM | [15] 29.1 µM | [18] 46.1 µM | [8] > 100 µM | [9] > 100 µM | [10] > 100 µM | [11] > 100 µM | [12] > 100 µM | [19] 65 µM | [20] 95.3 µM

COc1ccc(C(=O)N/N=C2\C(=O)c3c(C)cc(C)cc3CC2(C)C)cc1
inactive: [1] 22.3 µM | [13] 27 µM | [2] 20.9 µM | [16] 14.9 µM | [3] 22.5 µM | [17] 13.7 µM | [4] 21.4 µM | [14] 25.6 µM | [5] 19.8 µM | [6] 19.4 µM | [15] 17.1 µM | [18] 19.3 µM | [8] 17.3 µM | [9] 27.4 µM | [10] 14.9 µM | [11] 18.4 µM | [12] 54.2 µM | [19] 16.6 µM | [20] 18.6 µM

CC(=O)O[C@]12CCC[C@H]1C1(O)C(O)CCC[C@H]12 (some centres undefined)
inactive: [1] > 100 µM | [13] > 100 µM | [2] > 100 µM | [3] > 100 µM | [4] > 100 µM | [14] > 100 µM | [5] > 100 µM | [6] > 100 µM | [15] > 100 µM | [7] > 100 µM | [8] > 100 µM | [9] > 100 µM | [10] > 100 µM | [11] > 100 µM | [12] > 100 µM

Nc1nnc(-c2ccco2)c(-c2ccco2)n1
inactive: [1] > 100 µM | [13] > 100 µM | [2] > 100 µM | [16] > 100 µM | [3] > 100 µM | [17] > 100 µM | [4] 86.9 µM | [14] > 100 µM | [5] > 100 µM | [6] > 100 µM | [15] > 100 µM | [18] > 100 µM | [8] > 100 µM | [9] > 100 µM | [10] > 100 µM | [11] > 100 µM | [12] > 100 µM | [19] > 100 µM | [20] > 100 µM

CCCCCCCCOCC(CO)OCCCCCCCC (centres undefined)
inactive: [1] 24.4 µM | [13] 19.2 µM | [2] 19.3 µM | [16] 21.8 µM | [14] 15.8 µM | [5] 26.1 µM | [6] 18.9 µM | [15] 19.4 µM | [7] 18.9 µM | [8] 15 µM | [9] 23.7 µM | [10] 19.6 µM | [11] 17.4 µM | [12] 19.2 µM

N#CC1=C(C#N)/C(=C(\C#N)C(C#N)C#N)N=C1N
inactive: [1] 30 µM | [13] 28.2 µM | [2] 52 µM | [16] 28.2 µM | [3] 43.9 µM | [17] > 100 µM | [4] 41.8 µM | [14] 28.6 µM | [5] 15.6 µM | [6] 21.4 µM | [15] 27.4 µM | [18] 15.4 µM | [8] 32.7 µM | [9] 51.9 µM | [10] 17.1 µM | [11] 49.4 µM | [12] > 32.6 µM | [19] 45.8 µM | [20] 24.4 µM

CC[C@]12CCCN3CCc4c(n(c5ccccc45)C(=O)C1)[C@@H]32 [VINBURNINE]
inactive: [1] > 83.8 µM | [13] 18.2 µM | [2] 15.5 µM | [16] > 80.9 µM | [3] 46.9 µM | [17] 11.5 µM | [4] 13.3 µM | [14] 3.72 µM | [5] 3.97 µM | [6] 7.5 µM | [15] 3.86 µM | [18] 1.53 µM | [8] 11.6 µM | [9] 14.5 µM | [10] 4.63 µM | [11] 12.9 µM | [12] 12.5 µM | [19] 3.51 µM | [20] 24.7 µM
